From patent publication US7122173B2, “Agent for the treatment of bladder irritative symptoms accompanied by benign prostatic hyperplasia” (Kyowa Hakko Kogyo Co., Ltd., priority 2001, dated 2006)

Assays:
Assay type in all cases: cell-based, rat
[1] = system: Na^+ currents in DRG cells; experiment: Voltage clamp, inward Na+ currents in DRG cells
Protocol: (§1) Experiments were performed on adult female Sprague Dawley rats. First and second series of the experiments were performed, respectively, in unidentified DRG neurons and a specific population of DRG neurons innervating the urinary bladder. The population of DRG neurons that innervate the urinary bladder were labeled by retrograde axonal transport of the fluorescent dye, Fast Blue (4% w/v) (Polyloy, Gross Umstadt, Germany), injected into the wall of the bladder in halothane-anesthetized animals 7 days before the dissociation. The dye was injected with a 28 gauge needle at three to six sites on the dorsal surface of the organ (5–6 μL per site, total volume of 20–30 μL). Each injection site was washed with saline to minimize contamination of adjacent organs with the dye.
(§2) Freshly dissociated neurons from DRG were prepared from halothane-anesthetized animals. L6 and S1 DRG were dissected from animals and then dissociated in a shaking bath for 25 minutes at 35° C. with 5 mL DMEM (Sigma) containing 0.3 mg/mL trypsin (Type 3, Sigma), 1 mg/mL collagenase (Type 1, Sigma), and 0.1 mg/mL deoxyribonuclease (Type 4, Sigma). Trypsin inhibitor (Type 2a, Sigma) was then added thereto to neutralize the activity of trypsin. Individual DRG cell bodies were isolated by trituration and then plated on a poly-L-lysine-coated 35 mm Petri dishes.
(§3) Dye-labeled primary afferent neurons that innervate the urinary bladder were identified using an inverted phase-contrast microscope (Nikon, Tokyo, Japan) with fluorescent attachments (UV-1A filter; excitation wavelength, 365 nm). Gigaohm-seal whole-cell recordings were performed at room temperature (20–22° C.) on each labeled neuron in a culture dish that usually contained three to seven labeled cells among a few hundred unlabeled neurons. The internal solution contained (in mmol/L): KCl 140, CaCl2 1, MgCl2 2, EGTA 11, HEPES 10, Mg-ATP 2, and Tris-GTP 0.4 adjusted to pH 7.4 with KOH. Patch electrodes had resistances of 1–4 M Ω when filled with the internal solution. Neurons were superfused at a flow rate of 1.5 mL/minutes with an external solution containing (in mmol/L): NaCl 150, KCl 5, CaCl2 2.5, MgCl2 1, HEPES 10, and D-glucose 10, adjusted to pH 7.4 with NaOH. All recordings were made with an Axopatch-1D patch-clamp amplifier (Axon Instruments, Foster City, Calif.), and data were acquired and analyzed by PCLAMP software (Axon Instruments).
Inward Na^+ currents were evoked by voltage steps to +60 mV, 800 ms long from a holding potentials of −90 mV. Currents were measured at the maximum (peak) and normalized to control (before addition of the compound).

[2] = system: delayed rectifier K^+ channel; experiment: Voltage clamp, delayed rectifier K+ currents in Fast Blue-labeled capsaicin-sensitive bladder afferent neurons; conditions: Compound 1 1.0 × 10^−6 mol/L
Protocol: as §1
Freshly dissociated neurons from DRG were prepared from halothane-anesthetized animals. […]
Dye-labeled primary afferent neurons that innervate the urinary bladder were identified using an inverted phase-contrast microscope (Nikon, Tokyo, Japan) with fluorescent attachments (UV-1A filter; excitation wavelength, 365 nm). […] All recordings were made with an Axopatch-1D patch-clamp amplifier (Axon Instruments, Foster City, Calif.), and data were acquired and analyzed by PCLAMP software (Axon Instruments).
In voltage-clamp recordings, outward K^+ currents and inward Na^+ currents were measured. […]

[3] = system: slowly-inactivating A-type K^+ channel; experiment: Voltage clamp, slowly-inactivating A-type K+ currents (HP −90 mV) in unidentified DRG neurons; conditions: for K+ current HP: −90 mV (slowly-inactivating A-type), relative value (before drug = 1): unidentified DRG neurons
Protocol: as §1, §2, §3
In voltage-clamp recordings, outward K^+ currents and inward Na^+ currents were measured. For the isolation of K^+ currents, the external solution was changed to one containing (in mmol/L): choline-Cl 150, KOH 5, CaCl2 0.03, HEPES 10, Mg(OH)2 3, and D-glucose 10, adjusted to pH 7.4 with HCl.
In first series of experiments using unidentified DRG neurons, outward K^+ currents were evoked by voltage steps to +60 mV, 800 ms long from a holding potentials of −90 mV, this was followed by a 1-second conditioning pre-pulse to −20 mV followed by a second pulse to +60 mV, identical to the first in the sequence. In the second series of experiments using Fast Blue-labeled bladder afferent neurons, slowly-inactivating A-type K^+ currents were isolated by subtraction of outward K^+ currents activated from a holding potential of −40 mV (on the condition of inactivation of the majority of slowly-inactivating A-type K^+ currents) from those activated from a holding potential of −120 mV (on the condition of full activation of slowly-inactivating A-type K^+ currents). A compound was added cumulatively, starting with a lower concentration. Currents were measured at the maximum (peak) and normalized to control (before addition of the compound).
The currents at a holding potential (HP) of −90 mV are results of the measurement of slowly-inactivating A-type K^+ currents, and the currents at an HP value of −20 mV are results of the measurement of delayed rectifier K^+ currents. […]

Compound: C[C@](O)(C(=O)Nc1cccc2c1C(=O)c1sccc1CS2(=O)=O)C(F)(F)F [Compound 1, (S)-(+)-N-(5,5-dioxido-10-oxo-4,10-dihydrothieno[3,2-c][1]benzothiepin-9-yl)-3,3,3-trifluoro-2-hydroxy-2-methylpropanamide]
- Na^+ ion currents, normalized to control (before addition) ([1]; Compound 1 1.0 × 10^−6 mol/L): 0.99 ± 0.02
- Na^+ ion currents, normalized to control (before addition) ([1]; Compound 1 5.0 × 10^−4 mol/L): 1.00 ± 0.01
- Na^+ ion currents, normalized to control (before addition) ([1]; Compound 1 5.0 × 10^−5 mol/L): 1.00 ± 0.01
- Na^+ ion currents, normalized to control (before addition) ([1]; Compound 1 5.0 × 10^−6 mol/L): 1.00 ± 0.00
- Na^+ ion currents, normalized to control (before addition) ([1]; Compound 1 5.0 × 10^−7 mol/L): 0.99 ± 0.01
- Na^+ ion currents, normalized to control (before addition) ([1]; Compound 1 5.0 × 10^−8 mol/L): 0.99 ± 0.01
- Influence upon Na^+ currents (in words) ([1]; DRG cells): does not exert influence upon Na^+ currents
- Delayed rectifier HP: −40 mV, normalized to control [2]: 1.10 ± 0.01
- K+ current HP: −90 mV, relative value (before drug = 1) ([3]; Compound 1 1.0 × 10^−5 mol/L, in the presence of 5 μmol/L verapamil): 0.99 ± 0.02
- K+ current HP: −90 mV, relative value (before drug = 1) ([3]; Compound 1 1.0 × 10^−5 mol/L, in the presence of 20 mmol/L tetraethylammonium): 1.19 ± 0.01
- K+ current HP: −90 mV (slowly-inactivating A-type), relative value (before drug = 1) ([3]; Compound 1 1.0 × 10^−5 mol/L): 0.96 ± 0.05
- K+ current HP: −90 mV, relative value (before drug = 1) ([3]; Compound 1 1.0 × 10^−6 mol/L, in the presence of 5 μmol/L verapamil): 1.11 ± 0.03
- K+ current HP: −90 mV, relative value (before drug = 1) ([3]; Compound 1 1.0 × 10^−6 mol/L, in the presence of 20 mmol/L tetraethylammonium): 1.19 ± 0.05
- K+ current HP: −90 mV (slowly-inactivating A-type), relative value (before drug = 1) ([3]; Compound 1 1.0 × 10^−6 mol/L): 1.06 ± 0.02
- K+ current HP: −90 mV, relative value (before drug = 1) ([3]; Compound 1 1.0 × 10^−7 mol/L, in the presence of 5 μmol/L verapamil): 1.13 ± 0.02
- K+ current HP: −90 mV, relative value (before drug = 1) ([3]; Compound 1 1.0 × 10^−7 mol/L, in the presence of 20 mmol/L tetraethylammonium): 1.10 ± 0.01
- K+ current HP: −90 mV (slowly-inactivating A-type), relative value (before drug = 1) ([3]; Compound 1 1.0 × 10^−7 mol/L): 1.12 ± 0.03
- K+ current HP: −90 mV (slowly-inactivating A-type), relative value (before drug = 1) ([3]; Compound 1 1.0 × 10^−8 mol/L): 0.99 ± 0.08
- K+ current HP: −90 mV (slowly-inactivating A-type), relative value (before drug = 1) ([3]; Compound 1 2.5 × 10^−8 mol/L): 1.07 ± 0.03
- K+ current HP: −90 mV, relative value (before drug = 1) ([3]; Compound 1 5.0 × 10^−4 mol/L, in the presence of 5 μmol/L verapamil): 0.61 ± 0.05
- K+ current HP: −90 mV, relative value (before drug = 1) ([3]; Compound 1 5.0 × 10^−4 mol/L, in the presence of 20 mmol/L tetraethylammonium): 0.29 ± 0.02
- K+ current HP: −90 mV, relative value (before drug = 1) ([3]; Compound 1 5.0 × 10^−4 mol/L, in the presence of 60 mmol/L tetraethylammonium): 0.56 ± 0.05
- K+ current HP: −90 mV, relative value (before drug = 1) ([3]; Compound 1 5.0 × 10^−5 mol/L, in the presence of 5 μmol/L verapamil): 0.94 ± 0.02
- K+ current HP: −90 mV, relative value (before drug = 1) ([3]; Compound 1 5.0 × 10^−5 mol/L, in the presence of 20 mmol/L tetraethylammonium): 0.91 ± 0.04
- K+ current HP: −90 mV, relative value (before drug = 1) ([3]; Compound 1 5.0 × 10^−5 mol/L, in the presence of 60 mmol/L tetraethylammonium): 1.15 ± 0.08
- K+ current HP: −90 mV (slowly-inactivating A-type), relative value (before drug = 1) ([3]; Compound 1 5.0 × 10^−5 mol/L): 0.83 ± 0.09
- K+ current HP: −90 mV, relative value (before drug = 1) ([3]; Compound 1 5.0 × 10^−6 mol/L, in the presence of 5 μmol/L verapamil): 1.02 ± 0.03
- K+ current HP: −90 mV, relative value (before drug = 1) ([3]; Compound 1 5.0 × 10^−6 mol/L, in the presence of 20 mmol/L tetraethylammonium): 1.16 ± 0.03
- K+ current HP: −90 mV, relative value (before drug = 1) ([3]; Compound 1 5.0 × 10^−6 mol/L, in the presence of 60 mmol/L tetraethylammonium): 1.14 ± 0.05
- K+ current HP: −90 mV, relative value (before drug = 1) ([3]; Compound 1 5.0 × 10^−7 mol/L, in the presence of 5 μmol/L verapamil): 1.17 ± 0.03
- K+ current HP: −90 mV, relative value (before drug = 1) ([3]; Compound 1 5.0 × 10^−7 mol/L, in the presence of 20 mmol/L tetraethylammonium): 1.15 ± 0.04
- K+ current HP: −90 mV, relative value (before drug = 1) ([3]; Compound 1 5.0 × 10^−7 mol/L, in the presence of 60 mmol/L tetraethylammonium): 1.11 ± 0.03
- K+ current HP: −90 mV (slowly-inactivating A-type), relative value (before drug = 1) ([3]; Compound 1 5.0 × 10^−7 mol/L): 1.15 ± 0.03
- K+ current HP: −90 mV, relative value (before drug = 1) ([3]; Compound 1 5.0 × 10^−8 mol/L, in the presence of 5 μmol/L verapamil): 1.03 ± 0.02
- K+ current HP: −90 mV, relative value (before drug = 1) ([3]; Compound 1 5.0 × 10^−8 mol/L, in the presence of 20 mmol/L tetraethylammonium): 1.08 ± 0.02
- K+ current HP: −90 mV, relative value (before drug = 1) ([3]; Compound 1 5.0 × 10^−8 mol/L, in the presence of 60 mmol/L tetraethylammonium): 1.08 ± 0.02
- K+ current HP: −90 mV (slowly-inactivating A-type), relative value (before drug = 1) ([3]; Compound 1 5.0 × 10^−8 mol/L): 1.07 ± 0.02
- K+ current HP: −90 mV, relative value (before drug = 1) ([3]; Compound 1 5.0 × 10^−9 mol/L, in the presence of 20 mmol/L tetraethylammonium): 1.02 ± 0.02
- K+ current HP: −90 mV (slowly-inactivating A-type), relative value (before drug = 1) ([3]; Compound 1 5.0 × 10^−9 mol/L): 1.01 ± 0.03
- Peak compound concentration for increase of slowly-inactivating A-type K^+ currents ([3]; unidentified DRG cells, HP −90 mV): 1e-07 to 5e-07 mol/L
